Measured values from the CheMixHub viscosity set.
Several values for one entry are separate records, joined by “and”; a condition that tells them apart may be missing. Identical values can stand only once. ± gives the uncertainty stated by the source.

Assay: xn = mol fraction of the nth substance listed

C1COCCO1 + O
Conditions | viscosity
303.15 K, 101.3 kPa, x2 = 0.2053 | 1.163 ± 0.019 mPa·s
303.15 K, 101.3 kPa, x2 = 0.3758 | 1.322 ± 0.021 mPa·s and 1.321 ± 0.021 mPa·s
303.15 K, 101.3 kPa, x2 = 0.7952 | 1.738 ± 0.028 mPa·s
303.15 K, 101.3 kPa, x2 = 0.8661 | 1.58 ± 0.025 mPa·s and 1.579 ± 0.025 mPa·s
303.15 K, 101.3 kPa, x2 = 0.9391 | 1.221 ± 0.02 mPa·s
303.15 K, 101.3 kPa, x2 = 0.9742 | 0.9855 ± 0.016 mPa·s and 0.9853 ± 0.016 mPa·s
303.15 K, 101.33 kPa, x1 = 0.0222 | 0.959 ± 0.0096 mPa·s
303.15 K, 101.33 kPa, x1 = 0.0486 | 1.137 ± 0.011 mPa·s
303.15 K, 101.33 kPa, x1 = 0.0806 | 1.332 ± 0.013 mPa·s
303.15 K, 101.33 kPa, x1 = 0.12 | 1.521 ± 0.015 mPa·s
303.15 K, 101.33 kPa, x1 = 0.143 | 1.608 ± 0.016 mPa·s
303.15 K, 101.33 kPa, x1 = 0.17 | 1.674 ± 0.017 mPa·s
303.15 K, 101.33 kPa, x1 = 0.2 | 1.726 ± 0.017 mPa·s
303.15 K, 101.33 kPa, x1 = 0.235 | 1.75 ± 0.017 mPa·s
303.15 K, 101.33 kPa, x1 = 0.25 | 1.749 ± 0.017 mPa·s
303.15 K, 101.33 kPa, x1 = 0.275 | 1.74 ± 0.017 mPa·s
303.15 K, 101.33 kPa, x1 = 0.323 | 1.704 ± 0.017 mPa·s
303.15 K, 101.33 kPa, x1 = 0.334 | 1.685 ± 0.017 mPa·s
303.15 K, 101.33 kPa, x1 = 0.38 | 1.634 ± 0.016 mPa·s
303.15 K, 101.33 kPa, x1 = 0.45 | 1.538 ± 0.015 mPa·s
303.15 K, 101.33 kPa, x1 = 0.5 | 1.46 ± 0.015 mPa·s
303.15 K, 101.33 kPa, x1 = 0.537 | 1.417 ± 0.014 mPa·s
303.15 K, 101.33 kPa, x1 = 0.648 | 1.282 ± 0.013 mPa·s
303.15 K, 101.33 kPa, x1 = 0.716 | 1.215 ± 0.012 mPa·s
303.15 K, 101.33 kPa, x1 = 0.795 | 1.153 ± 0.012 mPa·s
303.15 K, 101.33 kPa, x1 = 0.846 | 1.125 ± 0.011 mPa·s
303.15 K, 101.33 kPa, x1 = 0.918 | 1.098 ± 0.011 mPa·s
308.15 K, 101.33 kPa, x1 = 0.0222 | 0.859 ± 0.0086 mPa·s
308.15 K, 101.33 kPa, x1 = 0.0486 | 1.014 ± 0.01 mPa·s
308.15 K, 101.33 kPa, x1 = 0.0806 | 1.184 ± 0.012 mPa·s
308.15 K, 101.33 kPa, x1 = 0.12 | 1.349 ± 0.013 mPa·s
308.15 K, 101.33 kPa, x1 = 0.143 | 1.419 ± 0.014 mPa·s
308.15 K, 101.33 kPa, x1 = 0.17 | 1.479 ± 0.015 mPa·s
308.15 K, 101.33 kPa, x1 = 0.2 | 1.525 ± 0.015 mPa·s
308.15 K, 101.33 kPa, x1 = 0.235 | 1.549 ± 0.015 mPa·s
308.15 K, 101.33 kPa, x1 = 0.25 | 1.553 ± 0.016 mPa·s
308.15 K, 101.33 kPa, x1 = 0.275 | 1.546 ± 0.015 mPa·s
308.15 K, 101.33 kPa, x1 = 0.323 | 1.518 ± 0.015 mPa·s
308.15 K, 101.33 kPa, x1 = 0.334 | 1.503 ± 0.015 mPa·s
308.15 K, 101.33 kPa, x1 = 0.38 | 1.46 ± 0.015 mPa·s
308.15 K, 101.33 kPa, x1 = 0.45 | 1.38 ± 0.014 mPa·s
308.15 K, 101.33 kPa, x1 = 0.5 | 1.317 ± 0.013 mPa·s
308.15 K, 101.33 kPa, x1 = 0.537 | 1.282 ± 0.013 mPa·s
308.15 K, 101.33 kPa, x1 = 0.648 | 1.17 ± 0.012 mPa·s
308.15 K, 101.33 kPa, x1 = 0.716 | 1.112 ± 0.011 mPa·s
308.15 K, 101.33 kPa, x1 = 0.795 | 1.06 ± 0.011 mPa·s
308.15 K, 101.33 kPa, x1 = 0.846 | 1.036 ± 0.01 mPa·s
308.15 K, 101.33 kPa, x1 = 0.918 | 1.017 ± 0.01 mPa·s
313.1 K, 101 kPa, x2 = 0.228 | 0.97 ± 0.015 mPa·s
313.1 K, 101 kPa, x2 = 0.2741 | 0.989 ± 0.015 mPa·s
313.1 K, 101 kPa, x2 = 0.4187 | 1.047 ± 0.016 mPa·s
313.1 K, 101 kPa, x2 = 0.7038 | 1.368 ± 0.02 mPa·s
313.1 K, 101 kPa, x2 = 0.8099 | 1.376 ± 0.02 mPa·s
313.1 K, 101 kPa, x2 = 0.8346 | 1.32 ± 0.02 mPa·s
313.1 K, 101 kPa, x2 = 0.8791 | 1.229 ± 0.018 mPa·s
313.1 K, 101 kPa, x2 = 0.9194 | 1.083 ± 0.017 mPa·s
313.1 K, 101 kPa, x2 = 0.9508 | 0.937 ± 0.015 mPa·s
313.1 K, 101 kPa, x2 = 0.9786 | 0.786 ± 0.013 mPa·s
313.15 K, 101.3 kPa, x2 = 0.0459 | 0.9391 ± 0.015 mPa·s
313.15 K, 101.3 kPa, x2 = 0.09407 | 0.9443 ± 0.015 mPa·s
313.15 K, 101.3 kPa, x2 = 0.2053 | 0.9839 ± 0.016 mPa·s
313.15 K, 101.3 kPa, x2 = 0.3758 | 1.1 ± 0.018 mPa·s
313.15 K, 101.3 kPa, x2 = 0.7952 | 1.377 ± 0.022 mPa·s
313.15 K, 101.33 kPa, x1 = 0.0222 | 0.776 ± 0.0078 mPa·s
313.15 K, 101.33 kPa, x1 = 0.0486 | 0.914 ± 0.0091 mPa·s
313.15 K, 101.33 kPa, x1 = 0.0806 | 1.061 ± 0.011 mPa·s
313.15 K, 101.33 kPa, x1 = 0.12 | 1.199 ± 0.012 mPa·s
313.15 K, 101.33 kPa, x1 = 0.143 | 1.265 ± 0.013 mPa·s
313.15 K, 101.33 kPa, x1 = 0.17 | 1.322 ± 0.013 mPa·s
313.15 K, 101.33 kPa, x1 = 0.2 | 1.365 ± 0.014 mPa·s
313.15 K, 101.33 kPa, x1 = 0.235 | 1.386 ± 0.014 mPa·s
313.15 K, 101.33 kPa, x1 = 0.25 | 1.383 ± 0.014 mPa·s
313.15 K, 101.33 kPa, x1 = 0.275 | 1.384 ± 0.014 mPa·s
313.15 K, 101.33 kPa, x1 = 0.323 | 1.366 ± 0.014 mPa·s
313.15 K, 101.33 kPa, x1 = 0.334 | 1.352 ± 0.014 mPa·s
313.15 K, 101.33 kPa, x1 = 0.38 | 1.316 ± 0.013 mPa·s
313.15 K, 101.33 kPa, x1 = 0.45 | 1.249 ± 0.012 mPa·s
323.1 K, 101 kPa, x2 = 0.228 | 0.836 ± 0.013 mPa·s
323.1 K, 101 kPa, x2 = 0.2741 | 0.85 ± 0.013 mPa·s
323.1 K, 101 kPa, x2 = 0.4187 | 0.888 ± 0.014 mPa·s
323.1 K, 101 kPa, x2 = 0.591 | 1.063 ± 0.016 mPa·s
323.1 K, 101 kPa, x2 = 0.7038 | 1.123 ± 0.017 mPa·s
323.1 K, 101 kPa, x2 = 0.8099 | 1.122 ± 0.017 mPa·s
323.1 K, 101 kPa, x2 = 0.8346 | 1.078 ± 0.016 mPa·s
323.1 K, 101 kPa, x2 = 0.8791 | 1.006 ± 0.015 mPa·s
323.1 K, 101 kPa, x2 = 0.9194 | 0.889 ± 0.014 mPa·s
323.1 K, 101 kPa, x2 = 0.9508 | 0.774 ± 0.013 mPa·s
323.1 K, 101 kPa, x2 = 0.9786 | 0.652 ± 0.011 mPa·s
